Data taken from PMC12362594, “Design, Synthesis and Preclinical Evaluation of a Brain-Permeable PET Tracer for P2Y12 Receptor Imaging in the Brain” (Journal of Medicinal Chemistry, 2025).
“And” between values parts separate entries of the source, which are not always exact repeats. Equal entries are not always repeated.

Key:
P2Y12 receptor = target: P2Y12 receptor; design: method as in not given; conditions: Chinese hamster ovarian cell membranes; reported values from literature; ref not given; cited from earlier work
P2Y12R [1] = target: P2Y12R (Homo sapiens, UniProt Q9H244); test: cell-based; conditions: IC50, [33P]2-MeSADP competitor; triplicates, mean; footnote b values: three independent experiments, mean ± SD
P2Y12R (Homo sapiens, UniProt Q9H244), sequence (Q9H244 whole entry): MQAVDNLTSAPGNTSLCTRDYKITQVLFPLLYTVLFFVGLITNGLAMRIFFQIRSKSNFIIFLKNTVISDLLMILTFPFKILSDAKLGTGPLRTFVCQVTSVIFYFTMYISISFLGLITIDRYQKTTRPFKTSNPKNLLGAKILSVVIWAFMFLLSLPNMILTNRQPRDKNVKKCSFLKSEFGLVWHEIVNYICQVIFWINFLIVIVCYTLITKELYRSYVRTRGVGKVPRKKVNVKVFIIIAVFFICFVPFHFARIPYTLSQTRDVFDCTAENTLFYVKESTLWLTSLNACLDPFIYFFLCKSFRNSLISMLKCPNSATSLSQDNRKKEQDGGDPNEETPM
Method: The cell cultures were maintained in an incubator at 37 °C under a humidified and 5% CO2-conditioned atmosphere. Cells were passaged at 80% confluency. For binding assays, cells were harvested with Trypsin-EDTA (5 mL, Gibco) and resuspended in medium. The suspension was centrifuged at 1000g for 5 min and the supernatant was discarded. The cells were adjusted to assay cell concentration (2 × 10^6 cells/mL) by the addition of D-PBS and stored at 37 °C up to 1 h prior to the binding assay.
The mixture was transferred to a 96-well filter plate (1.0 μm glass fiber filter, MultiScreenHTS FB Filter Plate, Merck Millipore, Billercia, MA) and filtered with a vacuum manifold (MultiScreenHTS Vacuum Manifold, Merck Millipore, Billercia, MA). The filters were washed by the addition of cold PBS buffer (4 × 200 μL) and dried at rt for 1 h. Afterward, a punch-tip plate was mounted and the filters were separated into scintillation vials (10 mL) containing scintillation cocktail (4 mL, Rotiszint eco plus LSC-Universalcocktail). […] Bound activity was plotted as a function of ligand concentration in GraphPad Prism 8.0 (GraphPad Software, version 8.4.3., San Diego, CA).

[2] = Ex vivo biodistribution 60 min p.i.; type: in vivo, mouse; conditions: WT mice
[3] = Ex vivo metabolite analysis by radio-HPLC (plasma, liver, brain); conditions: 60 min p.i.
Method: 60 min after tracer administration, mice were transferred to the anesthesia box for isoflurane overdose and euthanized by cervical dislocation. Mouse organs and blood samples were collected, weighed and counted in a γ-counter. Blood samples were obtained by cardiac puncture and transferred to EDTA tubes (Microvette 500 K3E, Sarstedt, Nümbrecht, Germany) to prevent platelet aggregation. Blood samples were centrifuged at 3000g for 5 min to isolate blood plasma. An equal volume of TFA solution (10%) was added to plasma to precipitate remaining plasma proteins. The precipitate was separated by centrifugation at 20,817g for 5 min. […] Brain and liver samples were homogenized (Ika disperser T8.10) in a 1:1 mixture of MeCN and H2O and centrifuged at 3000g for 5 min.

[4] = In vitro stability in human blood/plasma, radio-HPLC; conditions: 37 °C
P2Y12R [5] = target: T1, P2Y12R (Mus musculus, UniProt Q9CPV9); test: In vitro autoradiography on mouse brain sections; type: binding; design: from tissue; host or cells: brain of living WT, PLX-5622-treated and Trem2-/- mice
T1 sequence (Q9CPV9 whole entry): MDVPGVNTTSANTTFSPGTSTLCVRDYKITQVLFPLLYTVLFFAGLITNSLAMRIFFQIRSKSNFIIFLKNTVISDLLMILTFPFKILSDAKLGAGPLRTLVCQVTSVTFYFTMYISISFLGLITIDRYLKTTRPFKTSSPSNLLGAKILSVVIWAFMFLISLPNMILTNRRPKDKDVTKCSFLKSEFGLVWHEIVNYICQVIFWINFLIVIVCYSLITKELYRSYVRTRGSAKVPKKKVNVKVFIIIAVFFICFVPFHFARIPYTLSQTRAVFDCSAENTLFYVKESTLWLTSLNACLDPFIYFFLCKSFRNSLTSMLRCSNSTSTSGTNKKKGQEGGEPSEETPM
Method: In vitro ARG experiments on brain sections from all animal models were performed under baseline and blocking conditions. […] However, as already concluded from our PET data (Figure ), the high signal in PLX sections may reflect a substantial amount of nonspecific (NSB) or off-target binding.
WT, PLX and Trem2^–/– mouse brain sections were thawed to rt for 5 min and then preincubated with PBS buffer (pH = 7.4) for 10 min. Sections were then incubated with a maximum of 0.5 MBq/mL [^18F]12 tracer formulation at rt for 45 min in PBS buffer. […] Subsequently, sections were washed with 30% ethanol for 1 min, 70% ethanol for 2 min and PBS for 1 min, before leaving them to dry at rt for 60 min. Afterward, brain sections were exposed to a phosphor imaging plate at rt for 24 h and then scanned with a CR-Reader (CR35 BIO, DÜRR MEDICAL, Bietigheim-Bissingen, Germany). The images were analyzed using Aida Image Analyzer software (v.4.50.010, Elysia-raytest GmbH, Straubenhardt, Germany). Quantification was performed by placing a region of interest (ROI) in the CTX and the hypothalamus (HYP) as pseudo reference region. Results are either expressed as normalized intensity relative to maximal intensity after background subtraction or as CTX to HYP ratio.

P2Y12R [6] = target: T1, P2Y12R; test: Correlation of PET signal with immunohistochemistry; type: in vivo; design: from tissue; host or cells: brain of living WT, PLX-5622-treated and Trem2-/- mice; conditions: cortical SUV 25–60 min p.i.
Method: Ex vivo immunohistochemical evaluation of Iba1 and P2Y12R expression was performed for a subset of mice (4 WT, 4 PLX, 8 Trem2^–/–) to correlate P2Y12 PET signal with target expression. […] High levels of Iba1 and P2Y12R were also detectable in Trem2^–/– mice, but reflecting the results of the PET studies, P2Y12R levels were not elevated compared to WT mice. Cortical SUV levels, derived from PET imaging in the most significant time frame (25–60 min p.i.) (Figure S12D), were correlated with Iba1 or P2Y12R expression density. A strong association between Iba1 signal and tracer uptake (R = 0.6589, p = 0.0055, Figure B) and between the P2Y12R signal and tracer uptake (R = 0.754, p = 0.0007, Figure C) was observed. The P2Y12 signal was well associated with Iba1 (R = 0.6, p = 0.014, Figure D) indicating predominant microglial receptor visualization.
Paraformaldehyde-fixed 50 μm thick sagittal brain sections were incubated overnight at 4 °C in PBS with 5% normal goat serum and 0.5% Triton X-100 containing guinea pig monoclonal anti-Iba1 primary antibody (1:500, Synaptic Systems GmbH, Göttingen, Germany, 234308) and rat monoclonal anti-P2Y12R primary antibody (1:200, P2YM 17A12, this work). […] The images were processed using the LAS X Software (version 3.9.1.28433), and analysis was conducted with FiJi/ImageJ (version 1.54f) by quantifying Iba1 and P2Y12R signal over a predefined threshold. […]

[7] = Log D 7.4 shake flask method, n-octanol/PBS; conditions: pH 7.4
Method: The distribution of [^18F]12 between n-octanol and PBS buffer was determined by the shake-flask method at rt. […] After 30 min, three samples (100 μL) were taken from each phase. […] Radioactivity for all samples was quantified by a γ-counter (counting time 1 min, counting window 450–570 keV, HIDEX AMG γ Counter version 1.6.0.0, Turku, Finland).

P2Y12R [8] = target: T1, P2Y12R; test: Dynamic in vivo PET imaging in WT, PLX and Trem2-/- mice; conditions: for maximum brain uptake C max: whole brain TAC
Method: Dynamic in vivo PET imaging was carried out in WT mice (n = 8) in order to assess the tracer distribution and brain uptake for [^18F]12 (Figure A). An initial peak of activity and subsequent rapid washout in blood and lungs was observed after tracer injection. The activity then predominantly accumulated in the liver, kidneys, bladder and intestines (Figure B). […] Dynamic in vivo PET imaging was repeated with WT mice (n = 2) under self-block conditions. […] Mouse organs were collected 60 min p.i. after intracardial perfusion to quantify the tracer uptake ex vivo.
To exclude a potential bias in brain PET interpretation caused by varying blood levels, volume-of-distribution (V T) images were computed using an image-derived cardiac input function.
The mice were scanned first with CT (70 kVp/650 μA, exposure time 300 ms, Helical 1.0 pitch). […] PET images of each mouse were coregistered with CT images of the corresponding mouse. A standardized global mean volume of interest (VOI) was used to assess tracer enrichment in the brain and to generate time-activity curves. For liver, bladder and kidney, VOIs were manually drawn as spheres. Data are reported as %ID/g or SUV. For each dynamic PET scan, VT was calculated using the method described by Logan et al., employing a cardiac input function obtained from a standardized VOI. The resulting brain V T image was then analyzed using a standardized global mean VOI. No corrections were made for radiometabolites.

[9] = In vitro stability in PBS, radio-HPLC; conditions: PBS formulation, 37 °C

Compound: CCOC(=O)c1cc(C#N)c(N2CCC(C(=O)NS(=O)(=O)Cc3ccccc3)CC2)nc1C [Compound 5, Ethyl 6-(4-((Benzylsulfonyl)-carbamoyl)-piperidin-1-yl)-5-cyano-2-methylnicotinate, reference compound]
- IC50 (P2Y12 receptor): 11 nM

Compound: CCOC(=O)c1cc(C#N)c(N2CCN(C(=O)NCc3ccc(F)cc3)CC2)nc1C [Compound 7, Ethyl 5-Cyano-6-(4-((4-fluorobenzyl)-carbamoyl)-piperazin-1-yl)-2-methylnicotinate]
- IC50 (P2Y12R [1]): 1840 nM

Compound: N#Cc1cc2c(nc1N1CCN(C(=O)NCc3ccc(F)cc3)CC1)COC2=O [Compound 8, 4-(3-Cyano-5-oxo-5,7-dihydrofuro[3,4-b]-pyridin-2-yl)-N-(4-fluorobenzyl)-piperazine-1-carboxamide]
- IC50 (P2Y12R [1]): 1840 nM and 5710 nM

Compound: CCOC(=O)c1ccc(N2CCC(C(=O)NCc3ccc(F)cc3)CC2)nc1C [Compound 9, Ethyl 6-(4-((4-Fluorobenzyl)-carbamoyl)-piperidin-1-yl)-2-methylnicotinate]
- IC50 (P2Y12R [1]): 762 nM

Compound: N#Cc1cc2c(nc1N1CCC(C(=O)NCc3ccc(F)cc3)CC1)COC2=O [Compound 14, 1-(3-Cyano-5-oxo-5,7-dihydrofuro[3,4-b]-pyridin-2-yl)-N-(4-fluorobenzyl)-piperidine-4-carboxamide]
- IC50 (P2Y12R [1]): 199 nM

Compound: CCOC(=O)c1ccc(N2CCC(C(=O)NCCc3ccc(F)cc3)CC2)nc1C [Compound 15, Ethyl 6-(4-((4-Fluorophenethyl)-carbamoyl)-piperidin-1-yl)-2-methylnicotinate]
- IC50 (P2Y12R [1]): 1260 nM

Compound: CCOC(=O)c1cnc(N2CCC(C(=O)NCCc3ccc(F)cc3)CC2)c(Cl)c1 [Compound 16, Ethyl 5-Chloro-6-(4-((4-fluorophenethyl)-carbamoyl)-piperidin-1-yl)-nicotinate]
- IC50 (P2Y12R [1]): 661 nM

Compound: CCOC(=O)c1cc(Cl)c(N2CCC(C(=O)NCCc3ccc(F)cc3)CC2)nc1C [Compound 17, Ethyl 5-Chloro-6-(4-((4-fluorophenethyl)-carbamoyl)-piperidin-1-yl)-2-methylnicotinate]
- IC50 (P2Y12R [1]): 661 nM and 469 nM

Compound: CCOC(=O)c1cc(C#N)c(N2CCC(C(=O)NCCc3ccc(F)cc3)CC2)nc1C [Compound 18, Ethyl 5-Cyano-6-(4-((4-fluorophenethyl)-carbamoyl)-piperidin-1-yl)-2-methylnicotinate]
- IC50 (P2Y12R [1]): 27100 nM

Compound: CCCOc1cc(N2CCC(C(=O)NCCc3ccc(F)cc3)CC2)c(Cl)cc1C(=O)OCC [Compound 19, Ethyl 5-Chloro-4-(4-((4-fluorophenethyl)-carbamoyl)-piperidin-1-yl)-2-propoxybenzoate]
- IC50 (P2Y12R [1]): 27100 nM and 3670 nM

Compound: CCOC(=O)c1ccc(N2CC(C(=O)NCc3ccc(F)cc3)C2)nc1C [Compound 20, Ethyl 6-(3-((4-Fluorobenzyl)-carbamoyl)-azetidin-1-yl)-2-methylnicotinate]
- IC50 (P2Y12R [1]): 806 nM

Compound: CCOC(=O)c1cnc(N2CC(C(=O)NCc3ccc(F)cc3)C2)c(Cl)c1 [Compound 21, Ethyl 5-Chloro-6-(3-((4-fluorobenzyl)-carbamoyl)-azetidin-1-yl)-nicotinate]
- IC50 (P2Y12R [1]): 566 nM

Compound: CCOC(=O)c1cc(C#N)c(N2CCC(C(=O)NCc3ccc([18F])cc3)CC2)nc1C [[^18F]12]
- Heart uptake ([2]; n = 2): 1.30 ± 0.51 %ID/g
- Kidney uptake ([2]; n = 2): 5.5 ± 1.1 %ID/g
- Liver uptake ([2]; n = 2): 19.6 ± 4.8 %ID/g
- Lung uptake ([2]; n = 2): 0.68 ± 0.15 %ID/g
- Pancreas uptake ([2]; n = 2): 0.79 ± 0.14 %ID/g
- Plasma uptake ([2]; n = 2): 1.58 ± 0.78 %ID/g
- Spleen uptake ([2]; n = 2): 0.77 ± 0.19 %ID/g
- Kidney uptake ([2]; n = 2, listed as [18F]12): 5.51 ± 1.08 %ID/g
- Liver uptake ([2]; n = 2, listed as [18F]12): 19.62 ± 4.75 %ID/g
- Blood uptake ([2]; n = 12): 1.2 ± 0.6 %ID/g
- Brain uptake ([2]; n = 12): 0.6 ± 0.2 %ID/g
- Blood uptake ([2]; n = 12, listed as [18F]12): 1.24 ± 0.56 %ID/g
- Brain uptake ([2]; n = 12, listed as [18F]12): 0.61 ± 0.21 %ID/g
- fraction of radioactivity in liver ([3]; WT mice, radio-HPLC): 47%
- fraction of radioactivity in plasma ([3]; WT mice, radio-HPLC): about 11%
- intact tracer in plasma ([3]; WT, PLX and Trem2-/- mice): 7 ± 4%
- intact tracer in brain ([3]; all groups): > 99%
- time stable with no decomposition [4]: at least 2 h
- cortical signal under blocking with Ticagrelor (P2Y12R [5]; PLX sections, 1 μM ticagrelor, p > 0.05): no reduction was observed
- cortical signal under blocking with Ticagrelor (P2Y12R [5]; Trem2-/- sections, 1 μM ticagrelor, p < 0.05): significantly reduced
- cortical signal under blocking with Ticagrelor (P2Y12R [5]; WT sections, 1 μM ticagrelor (1000-fold excess), p < 0.001): significantly reduced
- signal under blocking with nonradioactive compound 12 (P2Y12R [5]; WT, PLX and Trem2-/- sections, 1 μM 12 (1000-fold excess)): almost complete blocking of the signal
- CTX signal normalized to HYP, PLX sections compared to WT and Trem2-/- (P2Y12R [5]; WT: p < 0.005, Trem2-/-: p < 0.001): significant decreased uptake
- correlation R between P2Y12R signal and tracer uptake (P2Y12R [6]; p = 0.0007): 0.754
- correlation R between Iba1 signal and tracer uptake (P2Y12R [6]; p = 0.0055): 0.6589
- logD [7]: 2.67 ± 0.45
- higher brain accumulation in WT compared to PLX mice (P2Y12R [8]; 25–60 min p.i., p = 0.0029): 42%
- higher brain accumulation in Trem2-/- compared to PLX mice (P2Y12R [8]; 25–60 min p.i., p = 0.0362): 30%
- maximum brain uptake C max (P2Y12R [8]; Trem2-/- mice): 1.7 ± 0.5 SUV
- brain uptake under self-block conditions (P2Y12R [8]; WT mice n = 2, 200-fold excess of nonradioactive 12 injected 10 min prior): increased brain uptake
- C 25min/C 60min (P2Y12R [8]; WT mice, brain TAC plateau phase): ~1.5
- time of maximum brain uptake (P2Y12R [8]; WT mice, p.i.): ≤ 2 min
- maximum brain uptake C max (P2Y12R [8]; WT mice): 2.5 ± 0.7 SUV
- brain V T increase in WT compared to PLX mice (P2Y12R [8]; image-derived cardiac input function, p = 0.002): 16%
- brain V T increase in Trem2-/- compared to PLX mice (P2Y12R [8]; image-derived cardiac input function, p = 0.0454): 10%
- maximum brain uptake C max (P2Y12R [8]; microglia-depleted (PLX) mice): 2.0 ± 0.5 SUV
- time stable with no decomposition [9]: at least 2 h
